Consider 13 molecules from patent US20240018158A1, “BRM TARGETING COMPOUNDS AND ASSOCIATED METHODS OF USE” (Prelude Therapeutics Incorporated, priority 2020, published 2024).

Type in all cases: cell-based
The target in one assay is SMARCA4 (Homo sapiens (Human), UniProt P51532). The assay is described as follows: SMARCA4 HiBiT degradation assay in HeLa cells. The note with it: 18 hours; for DC50: read-out: DC50 (SM4-HeLa) SMARCA4 degradation potency; for Dmax: HeLa, read-out: Dmax % (SM4-HeLa) maximum SMARCA4 degradation within the concentrations tested. As to the method: (§1) HiBiT peptide knock-in of SMARCA2 in LgBiT expressing HEK293T cells was performed by CRISPR-mediated tagging system as described Promega. The homozygous HiBiT knock-in on c-terminus SMARCA2 was confirmed by sanger sequence. SMARCA2-HiBiT knock-in Hela monoclonal cell (CS302366) and SMARCA4-HiBiT knock-in Hela monoclonal cell (CS3023226) were purchased from Promega. The heterozygous HiBiT-knock-in was confirmed by sanger sequence in both SMARCA2-HiBiT and SMARCA4-HiBiT monoclonal cells.
(§2) Dispense 10 μL aliquot of prepared Hela-SMARCA2-HiBiT or Hela-SMARCA4-HiBiT cells (1:1 ratio of cells:Trypan Blue (#1450013, Bio-Rad)) onto cell counting slide (#145-0011, Bio-Rad) and obtain cell density and cell viability using cell counter (TC20, Bio-Rad). Remove appropriate volume of resuspended cells from culture flask to accommodate 2500 cells/well @ 20 μL/well. Transfer Hela-HiBiT cells to 50 ml conical (#430290, Corning). Spin down at 1000 rpm for 5 min using tabletop centrifuge (SPINCHRON 15, Beckman). Discard supernatant and resuspend cell pellet in modified EMEM (#30-2003, ATCC) cell culture media containing 10% FBS (F2422-500ML, Sigma), and 1×Penicillin/Streptomycin (200 g/1) (30-002-CI, Corning) to a cell density of 125,000 cells/ml. Dispense 20 μL of resuspended Hela-HiBit cells per well in 384-well TC treated plate (#12-565-343, Thermo Scientific) using standard cassette (#50950372, Thermo Scientific) on Multidrop Combi (#5840310, Thermo Scientific) inside laminar flow cabinet. Dispense test compounds onto plates using digital liquid dispenser (D300E, Tecan). Incubate plates in humidified tissue culture incubator @37° C. for 18 hours. Add 20 ul of prepared Nano-Glo® HiBiT Lytic detection buffer (N3050, Promega) to each well of 384-well plate using small tube cassette (#24073295, Thermo Scientific) on Multidrop Combi, incubate @ RT for 30-60 min. Read plates on microplate reader (Envision 2105, PerkinElmer) using 384 well Ultra-Sensitive luminescence mode. Raw data files and compound information reports are swept into centralized data lake and deconvoluted using automated scripts designed by TetraScience, Inc. Data analysis, curve-fitting and reporting done in Dotmatics Informatics Suite using Screening Ultra module.
Background: The HiBiT peptide binds its large partner to form an active luciferase.

Assay [1] has as its target T1, SMARCA2 (Homo sapiens (Human), UniProt P51531). Description: SMARCA2 HiBiT degradation assay in HeLa cells. The settings on record: 18 hours; for DC50: read-out: DC50 (SM2-HeLa) SMARCA2 degradation potency; for Dmax: read-out: Dmax % (SM2-HeLa) maximum SMARCA2 degradation within the concentrations tested. The procedure: as §1, §2
For assay [2], the target named is T1, SMARCA2. Description: SMARCA2 HiBiT degradation assay in HEK293T cells. The settings on record: 293T HiBiT assay, 24 h; for DC50: read-out: DC50 (SM2-293T) SMARCA2 degradation potency; for Dmax: HEK-293T, read-out: Dmax % (SM2-293T) maximum SMARCA2 degradation within the concentrations tested. Summed up: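 Luminescence from endogenous C-terminally HiBiT-tagged SMARCA2 (homozygous knock-in, LgBiT HEK293T) measured after 24 h compound exposure, 11 concentrations in 3-fold steps. DMSO and 1 μM PRT1001728 set 0% and 100%; DC50 fitted by four-parameter logistic model.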

Structures are written as SMILES. A value given as a limit tells only on which side of the number the result lay.

Sequence of SMARCA4 (P51532 whole entry): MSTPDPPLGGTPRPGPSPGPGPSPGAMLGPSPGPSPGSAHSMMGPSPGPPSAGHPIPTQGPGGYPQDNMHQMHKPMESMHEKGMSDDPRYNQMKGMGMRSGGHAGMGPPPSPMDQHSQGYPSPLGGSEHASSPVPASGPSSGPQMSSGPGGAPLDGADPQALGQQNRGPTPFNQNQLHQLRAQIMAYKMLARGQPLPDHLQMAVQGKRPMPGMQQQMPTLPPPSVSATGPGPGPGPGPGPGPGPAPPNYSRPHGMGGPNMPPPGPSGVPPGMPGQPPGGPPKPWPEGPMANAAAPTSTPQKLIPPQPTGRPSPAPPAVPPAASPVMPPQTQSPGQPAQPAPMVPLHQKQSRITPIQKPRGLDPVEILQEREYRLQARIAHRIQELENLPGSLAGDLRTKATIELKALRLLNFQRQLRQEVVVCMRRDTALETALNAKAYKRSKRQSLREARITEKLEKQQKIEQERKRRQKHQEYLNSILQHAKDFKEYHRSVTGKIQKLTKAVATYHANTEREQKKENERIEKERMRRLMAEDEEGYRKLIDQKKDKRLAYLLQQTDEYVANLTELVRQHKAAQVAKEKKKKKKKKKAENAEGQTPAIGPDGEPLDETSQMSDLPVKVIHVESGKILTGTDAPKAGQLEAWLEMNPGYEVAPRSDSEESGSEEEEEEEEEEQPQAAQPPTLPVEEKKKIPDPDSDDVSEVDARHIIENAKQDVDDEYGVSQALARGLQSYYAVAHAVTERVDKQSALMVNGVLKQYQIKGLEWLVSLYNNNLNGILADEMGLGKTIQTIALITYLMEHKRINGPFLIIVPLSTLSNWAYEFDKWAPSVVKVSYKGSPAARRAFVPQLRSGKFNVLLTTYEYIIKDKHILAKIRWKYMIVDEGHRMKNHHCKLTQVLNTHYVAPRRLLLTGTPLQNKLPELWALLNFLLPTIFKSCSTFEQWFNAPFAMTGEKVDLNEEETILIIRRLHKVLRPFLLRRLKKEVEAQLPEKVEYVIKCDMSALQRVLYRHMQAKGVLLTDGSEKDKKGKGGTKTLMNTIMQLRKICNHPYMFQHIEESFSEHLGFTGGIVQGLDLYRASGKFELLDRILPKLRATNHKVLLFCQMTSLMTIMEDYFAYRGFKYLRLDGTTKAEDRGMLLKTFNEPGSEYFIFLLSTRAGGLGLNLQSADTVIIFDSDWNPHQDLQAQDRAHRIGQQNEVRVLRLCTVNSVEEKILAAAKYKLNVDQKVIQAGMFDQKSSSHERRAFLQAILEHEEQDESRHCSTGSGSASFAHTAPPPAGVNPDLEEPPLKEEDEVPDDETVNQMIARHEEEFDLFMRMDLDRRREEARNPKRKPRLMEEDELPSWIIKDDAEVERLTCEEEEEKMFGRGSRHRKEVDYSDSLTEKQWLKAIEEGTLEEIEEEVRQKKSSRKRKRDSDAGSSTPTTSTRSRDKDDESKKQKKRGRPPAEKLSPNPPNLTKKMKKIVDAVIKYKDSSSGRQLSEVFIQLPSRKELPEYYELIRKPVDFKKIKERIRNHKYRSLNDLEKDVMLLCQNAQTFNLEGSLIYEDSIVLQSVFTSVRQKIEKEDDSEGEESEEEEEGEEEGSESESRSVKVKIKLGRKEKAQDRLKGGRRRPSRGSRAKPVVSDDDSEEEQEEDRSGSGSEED
T1 sequence (P51531 whole entry): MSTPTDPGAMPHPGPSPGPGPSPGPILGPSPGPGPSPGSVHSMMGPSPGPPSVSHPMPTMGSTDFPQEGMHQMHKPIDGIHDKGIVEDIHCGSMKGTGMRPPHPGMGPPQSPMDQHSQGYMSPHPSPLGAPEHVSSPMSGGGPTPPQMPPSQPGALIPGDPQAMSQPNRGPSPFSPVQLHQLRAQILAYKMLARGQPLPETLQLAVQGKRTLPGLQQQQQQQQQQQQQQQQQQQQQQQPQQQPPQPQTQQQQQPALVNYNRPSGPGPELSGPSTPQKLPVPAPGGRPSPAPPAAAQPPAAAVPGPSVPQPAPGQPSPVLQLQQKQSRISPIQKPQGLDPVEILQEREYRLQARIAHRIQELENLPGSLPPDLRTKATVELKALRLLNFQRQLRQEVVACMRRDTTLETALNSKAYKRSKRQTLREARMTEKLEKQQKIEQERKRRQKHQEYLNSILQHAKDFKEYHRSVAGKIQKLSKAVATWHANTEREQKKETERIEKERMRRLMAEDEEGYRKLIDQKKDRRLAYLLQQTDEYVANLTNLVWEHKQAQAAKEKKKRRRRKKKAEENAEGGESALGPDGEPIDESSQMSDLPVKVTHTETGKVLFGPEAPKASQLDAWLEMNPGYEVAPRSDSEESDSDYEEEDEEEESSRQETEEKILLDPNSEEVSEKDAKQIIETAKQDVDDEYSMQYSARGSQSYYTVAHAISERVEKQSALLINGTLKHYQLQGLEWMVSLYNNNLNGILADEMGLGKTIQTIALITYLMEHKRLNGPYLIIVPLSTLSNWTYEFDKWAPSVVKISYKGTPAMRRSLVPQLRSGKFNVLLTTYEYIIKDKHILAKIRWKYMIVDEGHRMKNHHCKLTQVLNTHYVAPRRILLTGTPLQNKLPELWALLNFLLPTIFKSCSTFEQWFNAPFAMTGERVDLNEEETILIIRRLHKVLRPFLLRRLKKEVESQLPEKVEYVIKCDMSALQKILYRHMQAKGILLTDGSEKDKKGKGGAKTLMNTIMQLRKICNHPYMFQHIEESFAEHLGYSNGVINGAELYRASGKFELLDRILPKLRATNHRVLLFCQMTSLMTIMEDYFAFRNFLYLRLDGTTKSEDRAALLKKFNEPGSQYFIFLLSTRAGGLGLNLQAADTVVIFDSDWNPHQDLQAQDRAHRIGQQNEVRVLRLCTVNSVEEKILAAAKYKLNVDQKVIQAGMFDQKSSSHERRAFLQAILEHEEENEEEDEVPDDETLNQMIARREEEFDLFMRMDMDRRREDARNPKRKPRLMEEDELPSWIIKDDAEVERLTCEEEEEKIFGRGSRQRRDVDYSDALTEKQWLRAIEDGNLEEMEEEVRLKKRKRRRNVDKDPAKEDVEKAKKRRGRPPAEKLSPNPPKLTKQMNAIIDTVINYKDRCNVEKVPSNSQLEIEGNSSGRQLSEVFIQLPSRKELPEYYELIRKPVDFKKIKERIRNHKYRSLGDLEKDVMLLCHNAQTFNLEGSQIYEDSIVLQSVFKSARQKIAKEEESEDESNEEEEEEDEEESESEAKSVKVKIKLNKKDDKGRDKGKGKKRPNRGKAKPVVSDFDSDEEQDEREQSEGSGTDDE

What is called DC50 is the midpoint of the concentration-degradation curve. As to `Cc1ncsc1-c1ccc([C@H](C)NC(=O)[C@@H]2C[C@@H](O)CN2C(=O)[C@@H](c2cc(OCC(=O)N3CCC(N4CCN5c6cc(-c7ccccc7O)nnc6NC[C@H]5C4)C(C)C3)no2)C(C)C)cc1` (single isomer, unassigned) [Example 30], at SMARCA4, the DC50 was < 100 nM and the Dmax is > 75%. In addition, at SMARCA2 [1], the DC50 was < 100 nM and the Dmax is > 75%.

Turning to `Cc1ncsc1-c1ccc([C@H](C)NC(=O)[C@@H]2C[C@@H](O)CN2C(=O)[C@@H](c2cc(OCCN3CCCC(N4CCN5c6cc(-c7ccccc7O)nnc6NC[C@H]5C4)C3)no2)C(C)C)cc1` (single isomer, unassigned) [Example 41], at SMARCA4, the half-maximal degradation concentration (DC50) was < 100 nM and the Dmax is > 75%. Further, on SMARCA2 [1], the DC50 is < 100 nM and the Dmax is > 75%.

Regarding `Cc1ncsc1-c1ccc([C@H](C)NC(=O)[C@@H]2C[C@@H](O)CN2C(=O)[C@@H](c2cc(OCCN3CCCC(N4CCN5c6cc(-c7ccccc7O)nnc6NC[C@H]5C4)C3)no2)C(C)C)cc1` (single isomer, unassigned) [Example 42], the half-maximal degradation concentration (DC50) at SMARCA4 and on SMARCA2 [1] was < 100 nM in each case.

On to `Cc1ncsc1-c1ccc([C@H](C)NC(=O)[C@@H]2C[C@@H](O)CN2C(=O)[C@@H](c2cc(O[C@H](C)CN3CCC(N4CCN5c6cc(-c7ccccc7O)nnc6NC[C@H]5C4)C3)no2)C(C)C)cc1` (single isomer, unassigned) [Example 50], for which the DC50 on SMARCA4 and on SMARCA2 [1] was < 100 nM each time. The Dmax at SMARCA4 and on SMARCA2 [1] was > 75% throughout.

As to `Cc1ncsc1-c1ccc([C@H](C)NC(=O)[C@@H]2C[C@@H](O)CN2C(=O)[C@@H](c2cc(O[C@H](C)CN3CCC(N4CCN5c6cc(-c7ccccc7O)nnc6NC[C@H]5C4)C3)no2)C(C)C)cc1` (single isomer, unassigned) [Example 51], on SMARCA4, the “Dmax % (SM4-HeLa) maximum SMARCA4 degradation within the concentrations tested” value is reported as “A/A (A = Dmax >75%)” and the half-maximal degradation concentration (DC50) is < 100 nM. Further, on SMARCA2 [1], the “Dmax % (SM2-HeLa) maximum SMARCA2 degradation within the concentrations tested” value is listed as “A/A (A = Dmax >75%)” and the half-maximal degradation concentration (DC50) is < 100 nM.

As for `Cc1ncsc1-c1ccc([C@H](C)NC(=O)[C@@H]2C[C@@H](O)CN2C(=O)[C@@H](NC(=O)CN2CCC(N3CCN4c5cc(-c6ccccc6O)nnc5NC[C@@H]4C3)CC2)C(C)(C)C)cc1` [Example 79, (2S,4R)-4-hydroxy-1-((S)-2-(2-(4-((R)-2-(2-hydroxyphenyl)-5,6,6a,7,9,10-hexahydro-8H-pyrazino[1′,2′:4,5]pyrazino[2,3-c]pyridazin-8-yl)piperidin-1-yl)acetamido)-3,3-dimethylbutanoyl)-N-((S)-1-(4-(4-methylthiazol-5-yl)phenyl)ethyl)pyrrolidine-2-carboxamide], at SMARCA2 [2], the DC50 is < 100 nM and the Dmax was > 75%.

Take `Cc1ncsc1-c1ccc([C@H](C)NC(=O)[C@@H]2C[C@@H](O)CN2C(=O)[C@@H](NC(=O)OCCN2CCC(N3CCN4c5cc(-c6ccccc6O)nnc5NC[C@H]4C3)CC2)C(C)(C)C)cc1` [Example 80, 2-(4-((S)-2-(2-hydroxyphenyl)-5,6,6a,7,9,10-hexahydro-8H-pyrazino[1′,2′:4,5]pyrazino[2,3-c]pyridazin-8-yl)piperidin-1-yl)ethyl ((S)-1-((2S,4R)-4-hydroxy-2-(((S)-1-(4-(4-methylthiazol-5-yl)phenyl)ethyl)carbamoyl)pyrrolidin-1-yl)-3,3-dimethyl-1-oxobutan-2-yl)carbamate]: on SMARCA2 [2], the half-maximal degradation concentration (DC50) is < 100 nM and the Dmax was > 75%.

As for `Cc1ncsc1-c1ccc([C@H](C)NC(=O)[C@@H]2C[C@@H](OC(=O)C(C)C)CN2C(=O)[C@@H](c2cc(OCCN3CCC(N4CCN5c6cc(-c7ccccc7O)nnc6NC[C@H]5C4)CC3)no2)C(C)C)cc1` [Example 81, (3R,5S)-1-((R)-2-(3-(2-(4-((S)-2-(2-hydroxyphenyl)-5,6,6a,7,9,10-hexahydro-8H-pyrazino[1′,2′:4,5]pyrazino[2,3-c]pyridazin-8-yl)piperidin-1-yl)ethoxy)isoxazol-5-yl)-3-methylbutanoyl)-5-(((S)-1-(4-(4-methylthiazol-5-yl)phenyl)ethyl)carbamoyl)pyrrolidin-3-yl isobutyrate], at SMARCA2 [2], the DC50 was < 100 nM and the Dmax was > 75%.

In the case of `Cc1ncsc1-c1ccc([C@H](C)NC(=O)[C@@H]2C[C@@H](O)CN2C(=O)[C@@H](NC(=O)C2CN(CCCN3CCN4c5cc(-c6ccccc6O)nnc5NCC4C3)C2)C(C)(C)C)cc1` (stereo partly drawn) [Example 82, (2S,4R)-4-hydroxy-1-((2S)-2-(1-(3-(2-(2-hydroxyphenyl)-5,6,6a,7,9,10-hexahydro-8H-pyrazino[1′,2′:4,5]pyrazino[2,3-c]pyridazin-8-yl)propyl)azetidine-3-carboxamido)-3,3-dimethylbutanoyl)N-((S)-1-(4-(4-methylthiazol-5-yl)phenyl)ethyl)pyrrolidine-2-carboxamide], at SMARCA2 [2], the 50% degradation concentration (DC50) was < 100 nM and the Dmax was > 75%.

For `Cc1ncsc1-c1ccc([C@H](C)NC(=O)[C@@H]2C[C@@H](O)CN2C(=O)[C@@H](c2cc(OC3CCN(CCCN4CCN5c6cc(-c7ccccc7O)nnc6NC[C@H]5C4)C3)no2)C(C)C)cc1` (stereo partly drawn) [Example 83, (2S,4R)-4-hydroxy-1-((2R)-2-(3-((1-(3-((S)-2-(2-hydroxyphenyl)-5,6,6a,7,9,10-hexahydro-8H-pyrazino[1′,2′:4,5]pyrazino[2,3-c]pyridazin-8-yl)propyl)pyrrolidin-3-yl)oxy)isoxazol-5-yl)-3-methylbutanoyl)N-((S)-1-(4-(4-methylthiazol-5-yl)phenyl)ethyl)pyrrolidine-2-carboxamide], on SMARCA2 [2], the DC50 was < 100 nM and the Dmax is > 75%.

Take `Cc1ncsc1-c1ccc([C@H](C)NC(=O)[C@@H]2C[C@@H](O)CN2C(=O)[C@@H](c2cc(OCCN3CCCC(CN4CCN5c6cc(-c7ccccc7O)nnc6NC[C@H]5C4)CC3)no2)C(C)C)cc1` (stereo partly drawn) [Example 84, (2S,4R)-4-hydroxy-1-((2R)-2-(3-(2-(4-(((S)-2-(2-hydroxyphenyl)-5,6,6a,7,9,10-hexahydro-8H-pyrazino[1′,2′:4,5]pyrazino[2,3-c]pyridazin-8-yl)methyl)azepan-1-yl)ethoxy)isoxazol-5-yl)-3-methylbutanoyl)-N-((S)-1-(4-(4-methylthiazol-5-yl)phenyl)ethyl)pyrrolidine-2-carboxamide]: on SMARCA2 [2], the 50% degradation concentration (DC50) was < 100 nM and the Dmax was > 75%.

Regarding `Cc1ncsc1-c1ccc([C@H](C)NC(=O)[C@@H]2C[C@@H](O)CN2C(=O)[C@@H](c2cc(OCCN3CCC(CN4CCN5c6cc(-c7ccccc7O)nnc6NC[C@H]5C4)C(C)(C)C3)no2)C(C)C)cc1` (stereo partly drawn) [Example 87, (2S,4R)-4-hydroxy-1-((2R)-2-(3-(2-(4-(((S)-2-(2-hydroxyphenyl)-5,6,6a,7,9,10-hexahydro-8H-pyrazino[1′,2′:4,5]pyrazino[2,3-c]pyridazin-8-yl)methyl)-3,3-dimethylpiperidin-1-yl)ethoxy)isoxazol-5-yl)-3-methylbutanoyl)-N-((S)-1-(4-(4-methylthiazol-5-yl)phenyl)ethyl)pyrrolidine-2-carboxamide], on SMARCA2 [2], the DC50 is < 100 nM and the Dmax is > 75%.

Turning to `Cc1ncsc1-c1ccc([C@H](C)NC(=O)[C@@H]2C[C@@H](O)CN2C(=O)[C@@H](c2cc(CCN3CCC(N4CCN5c6cc(-c7ccccc7O)nnc6NC[C@H]5C4)CC3)no2)C(C)C)cc1` [Example 91, (2S,4R)-4-hydroxy-1-((R)-2-(3-(2-(4-((S)-2-(2-hydroxyphenyl)-5,6,6a,7,9,10-hexahydro-8H-pyrazino[1′,2′:4,5]pyrazino[2,3-c]pyridazin-8-yl)piperidin-1-yl)ethyl)isoxazol-5-yl)-3-methylbutanoyl)-N-((S)-1-(4-(4-methylthiazol-5-yl)phenyl)ethyl)pyrrolidine-2-carboxamide], on SMARCA2 [2], the DC50 was < 100 nM and the Dmax was > 75%.
